This is an account of results in ChEMBL document CHEMBL3046485, “Photodynamic activities of protoporphyrin IX and its dopamine conjugate against cancer and bacterial cell viability” (2012).

In brackets after ≈: the same amount, converted by molar mass. Activity calls are given as the source filed them. No cut-off for these calls is given here. Bounds are passed on as bounds.

Test [1] deals with HeLa. The test can be described thus: Cytotoxicity against Homo sapiens (human) HeLa cells compound at 1 to 30 uM after 24 hr by LDH release assay. In kind it is functional, cell-based.
For test [2], the system named is Pseudomonas aeruginosa. The test can be described thus: Bacteriostatic activity against Pseudomonas aeruginosa ATCC 27853 after 24 hr by two-fold serial dilution method. In kind it is functional, organism-based.
Test [3] concerns SH-SY5Y. The test can be described thus: Antiproliferative activity against Homo sapiens (human) SH-SY5Y cells at 5 uM compound photoirradiated for 20 min followed by 24 hr incubation by WST-1 assay. It is filed as functional, cell-based.
Test [4] deals with U-87MG ATCC. The test can be described thus: Antiproliferative activity against Homo sapiens (human) U87 cells at 5 uM compound photoirradiated for 20 min followed by 24 hr incubation by WST-1 assay. It is filed as functional, cell-based.
Test [5] concerns HeLa. The test can be described thus: Antiproliferative activity against Homo sapiens (human) HeLa cells at 5 uM after 24 hr by WST-1 assay. It is filed as functional, cell-based.
The test system of test [6] is Bacillus subtilis. The test can be described thus: Antibacterial activity against Bacillus subtilis ATCC 6633 at 16 ug/ml compound photoirradiated for 20 min followed by 24 hr incubation by two-fold serial dilution method. It is filed as functional, organism-based.
In test [7] the test system is HeLa. The test can be described thus: Cytotoxicity against Homo sapiens (human) HeLa cells at 30 uM compound photoirradiated for 20 min followed by 24 hr incubation by LDH release assay. In kind it is functional, cell-based.
The test system of test [8] is Bacillus subtilis. The test can be described thus: Antibacterial activity against Bacillus subtilis ATCC 6633 at 16 ug/ml after 24 hr by two-fold serial dilution method. In kind it is functional, organism-based.
For test [9], the system named is HeLa. The test can be described thus: Antiproliferative activity against Homo sapiens (human) HeLa cells at 5 uM compound photoirradiated for 20 min followed by 24 hr incubation by WST-1 assay. In kind it is functional, cell-based.
For test [10], the system named is U-87MG ATCC. The test can be described thus: Cytotoxicity against Homo sapiens (human) U87 cells at 1 to 30 uM after 24 hr by LDH release assay. It is filed as functional, cell-based.
The subject of test [11] is U-87MG ATCC. The test can be described thus: Antiproliferative activity against Homo sapiens (human) U87 cells at 5 uM after 24 hr by WST-1 assay. It is filed as functional, cell-based.
Test [12] deals with Escherichia coli. The test can be described thus: Antibacterial activity against Escherichia coli ATCC 25922 after 24 hr by two-fold serial dilution method. It is filed as functional. The following applies: ATCC 25922, 24 h.
Test [13] relates to HeLa. The test can be described thus: Cytotoxicity against Homo sapiens (human) HeLa cells compound photoirradiated for 20 min followed by 24 hr incubation by LDH release assay. In kind it is functional, cell-based.
The test system of test [14] is SH-SY5Y. The test can be described thus: Antiproliferative activity against Homo sapiens (human) SH-SY5Y cells at 5 uM after 24 hr by WST-1 assay. It is filed as functional, cell-based.
The subject of test [15] is Escherichia coli. The test can be described thus: Antibacterial activity against Escherichia coli ATCC 25922 compound photoirradiated for 20 min followed by 24 hr incubation by two-fold serial dilution method. It is filed as functional. Conditions: ATCC 25922, light or radiation study.
For test [16], the system named is SH-SY5Y. The test can be described thus: Cytotoxicity against Homo sapiens (human) SH-SY5Y cells at 1 to 30 uM after 24 hr by LDH release assay. In kind it is functional, cell-based.
Test [17] deals with U-87MG ATCC. The test can be described thus: Cytotoxicity against Homo sapiens (human) U87 cells compound photoirradiated for 20 min followed by 24 hr incubation by LDH release assay. In kind it is functional, cell-based.
Test [18] has as its system SH-SY5Y. The test can be described thus: Cytotoxicity against Homo sapiens (human) SH-SY5Y cells at 30 uM compound photoirradiated for 20 min followed by 24 hr incubation by LDH release assay. It is filed as functional, cell-based.
The subject of test [19] is Bacillus subtilis. The test can be described thus: Antibacterial activity against Bacillus subtilis ATCC 6633 after 24 hr by two-fold serial dilution method. It is filed as functional. Conditions: ATCC 6633, 24 h.
For test [20], the system named is U-87MG ATCC. The test can be described thus: Cytotoxicity against Homo sapiens (human) U87 cells at 30 uM compound photoirradiated for 20 min followed by 24 hr incubation by LDH release assay. In kind it is functional, cell-based.
Test [21] relates to Pseudomonas aeruginosa. The test can be described thus: Antibacterial activity against Pseudomonas aeruginosa ATCC 27853 after 24 hr by two-fold serial dilution method. It is filed as functional. The following applies: ATCC 27853, 24 h.
For test [22], the system named is Pseudomonas aeruginosa. The test can be described thus: Antibacterial activity against Pseudomonas aeruginosa ATCC 27853 compound photoirradiated for 20 min followed by 24 hr incubation by two-fold serial dilution method. In kind it is functional. Conditions: ATCC 27853, light or radiation study.
The test system of test [23] is SH-SY5Y. The test can be described thus: Cytotoxicity against Homo sapiens (human) SH-SY5Y cells compound photoirradiated for 20 min followed by 24 hr incubation by LDH release assay. It is filed as functional, cell-based.
Test [24] relates to Bacillus subtilis. The test can be described thus: Antibacterial activity against Bacillus subtilis ATCC 6633 compound photoirradiated for 20 min followed by 24 hr incubation by two-fold serial dilution method. The following applies: ATCC 6633, light or radiation study. In kind it is functional.

For the compound `C=Cc1c(C)c2cc3[nH]c(cc4nc(cc5nc(cc1[nH]2)C(C)=C5CCC(=O)NCCc1ccc(O)c(O)c1)C(CCC(=O)NCCc1ccc(O)c(O)c1)=C4C)c(C)c3C=C`, the result in the test with HeLa [1], in the test with HeLa [5], in the test on Bacillus subtilis [6], in the test on HeLa [7], in the test with U-87MG ATCC [10] and in the test on U-87MG ATCC [11] was inactive. The outcome in the test with SH-SY5Y [14], with SH-SY5Y [16], with SH-SY5Y [18] and in the test with U-87MG ATCC [20] was inactive. Also, the result in the test with Pseudomonas aeruginosa [2], in the test on SH-SY5Y [3], in the test with U-87MG ATCC [4], in the test on Bacillus subtilis [8] and with HeLa [9] was Active. Moreover, the MIC with Escherichia coli [12] stood at 128 µg/mL (≈ 154 µM); in the test on Escherichia coli [15], 128 µg/mL (≈ 154 µM); against Bacillus subtilis [19], 100 µg/mL (≈ 120 µM); against Pseudomonas aeruginosa [21] it was 128 µg/mL (≈ 154 µM); with Pseudomonas aeruginosa [22] it was 128 µg/mL (≈ 154 µM); against Bacillus subtilis [24], 80 µg/mL (≈ 96 µM). In addition, the Activity entry with HeLa [13], in the test with U-87MG ATCC [17] and with SH-SY5Y [23] was “Dose-dependent effect” each time.
With `CC1(C)S[C@@H]2[C@H](NC(=O)[C@H](N)c3ccccc3)C(=O)N2[C@H]1C(=O)O` [AMPICILLIN], the MIC in the test with Escherichia coli [12] was over 256 µg/mL; against Bacillus subtilis [19], over 256 µg/mL; in the test on Pseudomonas aeruginosa [21], 128 µg/mL (≈ 366 µM).
Consider `CC[C@H]1OC(=O)[C@H](C)[C@@H](O[C@H]2C[C@@](C)(OC)[C@@H](O)[C@H](C)O2)[C@H](C)[C@@H](O[C@@H]2O[C@H](C)C[C@H](N(C)C)[C@H]2O)[C@](C)(O)C[C@@H](C)C(=O)[C@H](C)[C@@H](O)[C@]1(C)O` [ERYTHROMYCIN], for which the values for the MIC against Escherichia coli [12], with Bacillus subtilis [19] and in the test with Pseudomonas aeruginosa [21] were 128 µg/mL (≈ 174 µM), under 0.125 µg/mL and under 0.125 µg/mL, respectively.
As for `NC[C@H]1O[C@H](O[C@H]2[C@H](O)[C@@H](O[C@H]3O[C@H](CO)[C@@H](O)[C@H](N)[C@H]3O)[C@H](N)C[C@@H]2N)[C@H](O)[C@@H](O)[C@@H]1O` [KANAMYCIN], the minimum inhibitory concentration (MIC) with Escherichia coli [12] was 16 µg/mL (≈ 33 µM); in the test on Bacillus subtilis [19], over 256 µg/mL; with Pseudomonas aeruginosa [21], 2 µg/mL (≈ 4.13 µM).
Taken in the same sequence, the figures for `CCn1cc(C(=O)O)c(=O)c2ccc(C)nc21` [NALIDIXIC ACID] were 16 µg/mL (≈ 68.9 µM), 8 µg/mL (≈ 34.4 µM) and 2 µg/mL (≈ 8.61 µM).
Take `C=CC1=C(C)c2cc3[nH]c(cc4nc(cc5[nH]c(cc1n2)c(C)c5CCC(=O)O)C(CCC(=O)O)=C4C)c(C)c3C=C` [PROTOPORPHYRIN]: the result in the test with HeLa [1], in the test with HeLa [5], in the test on Bacillus subtilis [6], in the test on HeLa [7], in the test with U-87MG ATCC [10] and in the test on U-87MG ATCC [11] was inactive. The outcome with SH-SY5Y [14], with SH-SY5Y [16], in the test on SH-SY5Y [18] and with U-87MG ATCC [20] was inactive. Also, the result in the test on Pseudomonas aeruginosa [2], in the test with SH-SY5Y [3], in the test with U-87MG ATCC [4], in the test with Bacillus subtilis [8] and in the test on HeLa [9] was Active. Moreover, the MIC in the test with Escherichia coli [12] turned out to be 128 µg/mL (≈ 227 µM); in the test on Escherichia coli [15], 128 µg/mL (≈ 227 µM); in the test with Bacillus subtilis [19], 100 µg/mL (≈ 178 µM); against Pseudomonas aeruginosa [21], 128 µg/mL (≈ 227 µM); against Pseudomonas aeruginosa [22], 128 µg/mL (≈ 227 µM); with Bacillus subtilis [24], 80 µg/mL (≈ 142 µM). The Activity result in the test on HeLa [13], with U-87MG ATCC [17] and in the test on SH-SY5Y [23] was “Dose-dependent effect” in each case.
On to `CN[C@@H]1[C@H](O[C@H]2[C@H](O[C@H]3[C@H](O)[C@@H](O)[C@H](N=C(N)N)[C@@H](O)[C@@H]3N=C(N)N)O[C@@H](C)[C@]2(O)C=O)O[C@@H](CO)[C@H](O)[C@H]1O` [STREPTOMYCIN], for which the MIC against Escherichia coli [12] is over 256 µg/mL; against Bacillus subtilis [19] it was 16 µg/mL (≈ 27.5 µM); against Pseudomonas aeruginosa [21], 64 µg/mL (≈ 110 µM).
As for `CN(C)[C@@H]1C(O)=C(C(N)=O)C(=O)[C@@]2(O)C(O)=C3C(=O)c4c(O)cccc4[C@@](C)(O)[C@H]3C[C@@H]12` [TETRACYCLINE], the MIC with Escherichia coli [12] turned out to be 2 µg/mL (≈ 4.5 µM); in the test with Bacillus subtilis [19], 8 µg/mL (≈ 18 µM); against Pseudomonas aeruginosa [21] it was 1 µg/mL (≈ 2.25 µM).
